Test results: patent US20240366770A1, “DEGRADATION OF BRUTON'S TYROSINE KINASE (BTK) BY CONJUGATION OF BTK INHIBITORS WITH E3 LIGASE LIGAND AND METHODS OF USE” (BeiGene Switzerland GmbH, priority 2021, published 2024)
Like-named read-outs stand apart in the source and are kept apart here.

Legend:
[1] = tested on: HEK-293 cells; experiment: HEK-293 cytotoxicity detection (CellTiter-Glo); type: cell-based; settings: HEK-293 cells, 72 h incubation, CellTiter-Glo luminescence, IC50 of cell proliferation inhibition, read-out: HEK293
Method: (§1) HEK-293 cells were treated with compounds diluted in 0.2% DMSO, dilution was done according to the following protocol: (1) making 500× stock solution in DMSO from 5 mM by 4-fold dilution, total 8 doses were included; (2) making 2× solution in cell culture medium by transferring 0.5 ul 500× stock solution into 125 μl medium; (3) adding 50 μl of 2× solution to cells for incubation of 72 h.
25 μl of the CellTiter-Glo®Reagent [(Promega) -Cat No. G7572] was added to each well in the 96-well plate. The contents were mixed for 2 minutes on an orbital shaker to induce cell lysis. The plate was then allowed to incubate at room temperature for 10 minutes to stabilize luminescent signal. Luminescence was recorded on BMG PheraStar with luminescence protocol.
The IC50 value of a compound can be obtained by fitting the following equation
(§2) Wherein, X and Y are known values, and IC50, Hillslope, Top and Bottom are the parameters obtained by fitting with software. Y is the inhibition percentage (calculated from the equation), X is the concentration of the compound; IC50 is the concentration of the compound when the 50% inhibition is reached. The smaller the IC50 value is, the stronger the inhibitory ability of the compound is. Vice versa, the higher the IC50 value is, the weaker the ability the inhibitory ability of the compound is; Hillslope represents the slope of the fitted curve, generally around 1 *; Bottom represents the minimum value of the curve obtained by data fitting, which is generally 0%±20%; Top represents the maximum value of the curve obtained by data fitting, which is generally 100%±20%. The experimental data were fitted by calculating and analyzing with Dotmatics data analysis software.

[2] = target: T1, BTK (Homo sapiens, UniProt Q06187); experiment: BTK degradation in TMD-8 cells (HTRF assay); type: cell-based; settings: 6 h treatment, IC50 (DC50) of BTK degradation
T1 construct: High control=Cell group with added DMSO and without compound, indicating microplate readings without BTK degradation; endogenous in cells; host or cells: TMD-8
T1 sequence (Q06187 whole entry): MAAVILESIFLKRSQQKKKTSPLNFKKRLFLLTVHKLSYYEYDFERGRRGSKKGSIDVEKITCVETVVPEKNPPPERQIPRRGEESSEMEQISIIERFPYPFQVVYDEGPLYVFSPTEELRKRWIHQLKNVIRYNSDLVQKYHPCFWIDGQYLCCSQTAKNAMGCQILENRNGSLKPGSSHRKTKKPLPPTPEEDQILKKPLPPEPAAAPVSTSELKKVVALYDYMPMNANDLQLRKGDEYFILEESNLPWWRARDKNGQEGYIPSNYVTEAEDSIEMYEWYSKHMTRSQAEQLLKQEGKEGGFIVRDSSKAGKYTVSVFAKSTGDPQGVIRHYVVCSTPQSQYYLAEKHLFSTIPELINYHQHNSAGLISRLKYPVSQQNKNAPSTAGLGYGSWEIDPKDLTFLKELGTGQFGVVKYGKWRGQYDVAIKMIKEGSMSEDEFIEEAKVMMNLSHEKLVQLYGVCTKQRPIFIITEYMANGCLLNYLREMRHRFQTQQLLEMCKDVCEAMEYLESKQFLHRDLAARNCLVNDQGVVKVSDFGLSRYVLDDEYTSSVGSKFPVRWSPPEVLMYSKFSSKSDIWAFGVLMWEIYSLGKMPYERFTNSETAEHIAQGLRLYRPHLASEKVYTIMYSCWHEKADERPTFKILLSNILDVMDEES
Method: as §1, with “TMD-8 cells” for “HEK-293 cells”, “from 1” for “from 5”, “by 6-fold” for “by 4-fold”, “0.5 μl” for “0.5 ul”, “adding 15” for “adding 50”, “of 6” for “of 72”
After 6 h treatment, 10 μl 4× lysis buffer was added to each well; the plate was sealed and incubated for 30 min at room temperature on a plate shaker; Once the cells was lysed, 16 μL of cell lysate were transferred to a PE 384-well HTRF detection plate; 4 μL of pre-mixed HTRF antibodies were added to each well; the plate was covered with a plate sealer, and then spinned at 1000 rpm for 1 min, then incubated overnight at room temperature; the results were read on BMG PheraStar with HTRF protocol (337 nm-665 nm-620 nm).
The IC50 (DC50) value of a compound can be obtained by fitting the following equation
as §2, with “wherein,” for “Wherein,”

DC50 [2] [nM]	Molecule	IC50 [1] [nM]	IC50 ([1]; Homo sapiens) [nM]
9.03	5-(tert-butyl)-N—((R)-1-(4-(7-(4-(3-(4-((R)-2,6-dioxopiperidin-3-yl)phenyl)cyclobutyl)piperazin-1-yl)-9H-pyrimido[4,5-b]indol-4-yl)-3-fluoro-2-methylphenyl)ethyl)-1,2,4-oxadiazole-3-carboxamide [Example 32]	> 10000	
1.52	Cc1cc(-c2ncnc3[nH]c4cc(N5CCC6(CC5)CCN(C5CC(c7ccc(C8CCC(=O)NC8=O)cc7)C5)C6)ccc4c23)ccc1[C@@H](C)NC(=O)c1nc(C(C)(C)C)no1 (stereo in doubt) [Example 101, 3-(tert-butyl)-N—((R)-1-(4-(7-(2-(3-(4-((R)-2,6-dioxopiperidin-3-yl)phenyl)cyclobutyl)-2,8-diazaspiro[4.5]decan-8-yl)-9H-pyrimido[4,5-b]indol-4-yl)-2-methylphenyl)ethyl)-1,2,4-oxadiazole-5-carboxamide]		956
4.94	Cc1cc(-c2ncnc3[nH]c4ccc(N5CCN(CC6CCN(c7ccc(N8CCC(=O)NC8=O)cc7)CC6)CC5)cc4c23)ccc1CNC(=O)c1nc(C(C)(C)C)no1 [Example 1, 3-(tert-butyl)-N-(4-(6-(4-((1-(4-(2,4-dioxotetrahydropyrimidin-1(2H)-yl)phenyl)piperidin-4-yl)methyl)piperazin-1-yl)-9H-pyrimido[4,5-b]indol-4-yl)-2-methylbenzyl)-1,2,4-oxadiazole-5-carboxamide]		> 10000
> 2000	Cc1cc(-c2ncnc3[nH]c4ccc(C5CCN(CC6CCN(c7ccc(N8CCC(=O)NC8=O)cc7)CC6)CC5)cc4c23)ccc1CNC(=O)c1nc(C(C)(C)C)no1 [Example 2, 3-(tert-butyl)-N-(4-(6-(1-((1-(4-(2,4-dioxotetrahydropyrimidin-1(2H)-yl)phenyl)piperidin-4-yl)methyl)piperidin-4-yl)-9H-pyrimido[4,5-b]indol-4-yl)-2-methylbenzyl)-1,2,4-oxadiazole-5-carboxamide]		3950
2.15	Cc1cc(-c2ncnc3[nH]c4cc(C5CCN(CCCOc6ccc(NC7CCC(=O)NC7=O)cc6)CC5)ccc4c23)ccc1CNC(=O)c1nc(C(C)(C)C)no1 (stereo not shown) [Example 3, 3-(tert-butyl)-N-(4-(7-(1-(3-(4-((2,6-dioxopiperidin-3-yl)amino)phenoxy)propyl)piperidin-4-yl)-9H-pyrimido[4,5-b]indol-4-yl)-2-methylbenzyl)-1,2,4-oxadiazole-5-carboxamide]		> 10000
0.294	Cc1cc(-c2ncnc3[nH]c4cc(C5CCN(CC6CCN(c7ccc(N8CCC(=O)NC8=O)cc7)CC6)CC5)ccc4c23)ccc1CNC(=O)c1nc(C(C)(C)C)no1 [Example 4, 3-(tert-butyl)-N-(4-(7-(1-((1-(4-(2,4-dioxotetrahydropyrimidin-1(2H)-yl)phenyl)piperidin-4-yl)methyl)piperidin-4-yl)-9H-pyrimido[4,5-b]indol-4-yl)-2-methylbenzyl)-1,2,4-oxadiazole-5-carboxamide]		3660
0.731	Cc1cc(-c2ncnc3[nH]c4cc(C5CCN(CC6CCN(c7ccc(N8CCC(=O)NC8=O)cc7)CC6)CC5)ccc4c23)ccc1[C@@H](C)NC(=O)c1nc(C(C)(C)C)no1 [Example 5, (R)-3-(tert-butyl)-N-(1-(4-(7-(1-((1-(4-(2,4-dioxotetrahydropyrimidin-1(2H)-yl)phenyl)piperidin-4-yl)methyl)piperidin-4-yl)-9H-pyrimido[4,5-b]indol-4-yl)-2-methylphenyl)ethyl)-1,2,4-oxadiazole-5-carboxamide]		3250
0.394	Cc1cc(-c2ncnc3[nH]c4cc(N5CCN(CC6CCN(c7ccc(N8CCC(=O)NC8=O)cc7)CC6)CC5)ccc4c23)ccc1[C@@H](C)NC(=O)c1nc(C(C)(C)C)no1 [Example 6, (R)-3-(tert-butyl)-N-(1-(4-(7-(4-((1-(4-(2,4-dioxotetrahydropyrimidin-1(2H)-yl)phenyl)piperidin-4-yl)methyl)piperazin-1-yl)-9H-pyrimido[4,5-b]indol-4-yl)-2-methylphenyl)ethyl)-1,2,4-oxadiazole-5-carboxamide]		> 10000
1.27	Cc1cc(-c2ncnc3[nH]c4cc(N5CCN(CC6CCN(c7ccc(N8CCC(=O)NC8=O)cn7)CC6)CC5)ccc4c23)ccc1[C@@H](C)NC(=O)c1nc(C(C)(C)C)no1 [Example 7, (R)-3-(tert-butyl)-N-(1-(4-(7-(4-((1-(5-(2,4-dioxotetrahydropyrimidin-1(2H)-yl)pyridin-2-yl)piperidin-4-yl)methyl)piperazin-1-yl)-9H-pyrimido[4,5-b]indol-4-yl)-2-methylphenyl)ethyl)-1,2,4-oxadiazole-5-carboxamide]		> 10000
0.481	Cc1cc(-c2ncnc3[nH]c4cc(N5CCN(CC6CCN(c7ccc(N8CCC(=O)NC8=O)c(C)c7)CC6)CC5)ccc4c23)ccc1[C@@H](C)NC(=O)c1nc(C(C)(C)C)no1 [Example 8, (R)-3-(tert-butyl)-N-(1-(4-(7-(4-((1-(4-(2,4-dioxotetrahydropyrimidin-1(2H)-yl)-3-methylphenyl)piperidin-4-yl)methyl)piperazin-1-yl)-9H-pyrimido[4,5-b]indol-4-yl)-2-methylphenyl)ethyl)-1,2,4-oxadiazole-5-carboxamide]		> 10000
1.51	Cc1cc(-c2ncnc3[nH]c4cc(C5=CCN(CC6CCN(c7ccc(N8CCC(=O)NC8=O)cc7)CC6)C5)ccc4c23)ccc1[C@@H](C)NC(=O)c1nc(C(C)(C)C)no1 [Example 10, (R)-3-(tert-butyl)-N-(1-(4-(7-(1-((1-(4-(2,4-dioxotetrahydropyrimidin-1(2H)-yl)phenyl)piperidin-4-yl)methyl)-2,5-dihydro-1H-pyrrol-3-yl)-9H-pyrimido[4,5-b]indol-4-yl)-2-methylphenyl)ethyl)-1,2,4-oxadiazole-5-carboxamide]		> 10000
9.78	Cc1cc(-c2ncnc3[nH]c4cc(-c5ccn(CC6CCN(c7ccc(N8CCC(=O)NC8=O)cc7)CC6)c5)ccc4c23)ccc1[C@@H](C)NC(=O)c1nc(C(C)(C)C)no1 [Example 11, (R)-3-(tert-butyl)-N-(1-(4-(7-(1-((1-(4-(2,4-dioxotetrahydropyrimidin-1(2H)-yl)phenyl)piperidin-4-yl)methyl)-1H-pyrrol-3-yl)-9H-pyrimido[4,5-b]indol-4-yl)-2-methylphenyl)ethyl)-1,2,4-oxadiazole-5-carboxamide]		> 10000
0.613	Cc1cc(-c2ncnc3[nH]c4cc(C5CCN(CC6CCN(c7ccc(N8CCC(=O)NC8=O)cc7)CC6)C5)ccc4c23)ccc1[C@@H](C)NC(=O)c1nc(C(C)(C)C)no1 (stereo partly drawn) [Example 12, 3-(tert-butyl)-N-((1R)-1-(4-(7-(1-((1-(4-(2,4-dioxotetrahydropyrimidin-1(2H)-yl)phenyl)piperidin-4-yl)methyl)pyrrolidin-3-yl)-9H-pyrimido[4,5-b]indol-4-yl)-2-methylphenyl)ethyl)-1,2,4-oxadiazole-5-carboxamide]		3640
1.05	Cc1cc(-c2ncnc3[nH]c4cc([C@@H]5CCN(CC6CCN(c7ccc(N8CCC(=O)NC8=O)cc7)CC6)C5)ccc4c23)ccc1[C@@H](C)NC(=O)c1nc(C(C)(C)C)no1 [Example 13, 3-(tert-butyl)-N—((R)-1-(4-(7-((S)-1-((1-(4-(2,4-dioxotetrahydropyrimidin-1(2H)-yl)phenyl)piperidin-4-yl)methyl)pyrrolidin-3-yl)-9H-pyrimido[4,5-b]indol-4-yl)-2-methylphenyl)ethyl)-1,2,4-oxadiazole-5-carboxamide]		3260
